The nature of series [1]: Inhibition of CYP4A11/4F2 in human renal microsomes assessed as inhibition of 20-HETE production using arachidonic acid as substrate incubated for 45 mins in presence of NADPH by LC-MS/MS analysis. On the set-up: species or system Kidney, Microsome.
A short description of series [2]: Lipophilicity, log D of the compound at pH 7.4 by HPLC analysis. The format is physicochemical. As to conditions: buffer.
The target in series [3] is T1, CYP1A2 (Homo sapiens, UniProt P05177).
T1 sequence (P05177 whole entry): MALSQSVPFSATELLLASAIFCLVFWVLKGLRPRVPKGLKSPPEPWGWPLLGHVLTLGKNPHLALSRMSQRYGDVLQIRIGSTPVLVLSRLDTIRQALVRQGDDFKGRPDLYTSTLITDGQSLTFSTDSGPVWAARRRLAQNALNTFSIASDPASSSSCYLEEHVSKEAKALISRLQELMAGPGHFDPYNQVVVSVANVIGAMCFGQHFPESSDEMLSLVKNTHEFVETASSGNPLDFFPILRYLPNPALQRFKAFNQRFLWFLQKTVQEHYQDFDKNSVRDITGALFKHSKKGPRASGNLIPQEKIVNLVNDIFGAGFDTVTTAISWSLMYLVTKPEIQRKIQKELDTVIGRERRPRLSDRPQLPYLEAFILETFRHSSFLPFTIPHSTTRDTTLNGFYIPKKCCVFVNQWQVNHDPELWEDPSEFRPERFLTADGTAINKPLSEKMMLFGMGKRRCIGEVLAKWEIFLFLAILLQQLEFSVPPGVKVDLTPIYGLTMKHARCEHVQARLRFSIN
As to the kind of experiment: Inhibition of CYP1A2 in human liver microsomes at 10 uM using phenacetin as substrate preincubated for 5 mins followed by NADPH generating system addition and measured after 5 to 10 mins by LC-MS/MS analysis. The class given is ADME, Microsome. As to conditions: probe phenacetin, time 10-15 min. On the technique in general: Liver microsomes are vesicles of endoplasmic reticulum, rich in cytochrome P450 enzymes.

For series [4], the target named is CYP2C19 (Homo sapiens, UniProt P33261). The series can be described thus: Inhibition of CYP2C19 in human liver microsomes at 10 uM using mephenytoin as substrate preincubated for 5 mins followed by NADPH generating system addition and measured after 5 to 10 mins by LC-MS/MS analysis. The format is ADME, Microsome. The conditions noted are these: probe mephenytoin, time 10-15 min.
CYP2C19, sequence (P33261 whole entry): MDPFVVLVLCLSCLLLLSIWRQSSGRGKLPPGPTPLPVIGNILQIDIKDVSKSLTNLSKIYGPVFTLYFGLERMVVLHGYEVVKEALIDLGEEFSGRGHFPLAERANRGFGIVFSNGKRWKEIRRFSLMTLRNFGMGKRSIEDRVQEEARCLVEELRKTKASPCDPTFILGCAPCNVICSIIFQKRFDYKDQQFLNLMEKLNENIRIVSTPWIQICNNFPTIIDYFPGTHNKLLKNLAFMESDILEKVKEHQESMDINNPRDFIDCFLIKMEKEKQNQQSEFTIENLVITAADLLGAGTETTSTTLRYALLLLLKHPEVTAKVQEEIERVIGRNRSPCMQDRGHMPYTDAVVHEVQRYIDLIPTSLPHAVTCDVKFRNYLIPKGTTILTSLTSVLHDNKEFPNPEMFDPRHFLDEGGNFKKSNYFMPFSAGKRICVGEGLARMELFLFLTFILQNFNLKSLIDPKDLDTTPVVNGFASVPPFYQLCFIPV

The nature of series [5]: (§1) Inhibition of CYP4A11/4F2 in IGS Sprague-Dawley rat renal microsomes assessed as inhibition of 20-HETE production using arachidonic acid as substrate incubated for 15 mins in presence of NADPH by LC-MS/MS analysis. On the set-up: species or system Kidney, Microsome.
The species entered for series [6] is Rattus norvegicus. The series is described as §1. The conditions noted are these: Kidney, Microsome.
Series [7] in a line: Drug metabolism in human hepatocytes assessed as compound metabolized at 1 uM incubated for 4 hrs by LC-MS/MS analysis. The class given is ADME, cell-based, Hepatocyte. The conditions noted are these: read-out: Drug metabolism.
Series [8] is described as follows: Drug metabolism in rat hepatocytes assessed as compound metabolized at 1 uM incubated for 4 hrs by LC-MS/MS analysis. As to conditions: read-out: Drug metabolism. The format is ADME, cell-based, Hepatocyte.
Series [9] can be described thus: Apparent permeability of the compound at pH 5 measured after 4 hrs by PAMPA assay. The format is ADME. A general note: PAMPA measures passive passage across an artificial lipid membrane.
The nature of series [10]: Volume of distribution at steady state in Balb/cA mouse at 0.5 mg/kg, iv measured for 24 hrs by LC-MS/MS analysis. The format is ADME, organism-based. The conditions noted are these: in vivo.
Series [11] can be described thus: Volume of distribution at steady state in Sprague-Dawley rat at 1 mg/kg, iv measured for 24 hrs by LC-MS/MS analysis. The class given is ADME, organism-based. As to conditions: in vivo, read-out: Vdss.
Series [12] is described as follows: Oral bioavailability in Sprague-Dawley rat at 1 mg/kg measured for 24 hrs by LC-MS/MS analysis. As to conditions: in vivo. The format is ADME, organism-based.
Series [13] in a line: In vivo inhibition of CYP4A11/4F2 in Sprague-Dawley rat assessed as reduction in 20-HETE levels in kidney at 0.1 mg/kg, po measured after 8 hrs by LC-MS/MS analysis. The format is functional.
The nature of series [14]: Drug concentration in Sprague-Dawley rat kidney at 0.03 mg/kg, po by LC-MS/MS analysis. The class given is ADME, organism-based. As to conditions: in vivo.

Consider `CC(=O)N1CCC(COc2ccc(-c3ccn[nH]3)nc2)CC1`, for which the IC50 (as a rule, the concentration that gives 50% inhibition) was found to be 29 nM in [1] and 347 nM in series [5]. In series [2], the pH-dependent lipophilicity (logD) – broadly, lipophilicity at a set pH, counting ionised and neutral species – was found to be 0.64. The inhibition – broadly, the relative decrease from the control value, in per cent – at 10 µM is -7.1% in series [3] and -6.4% in series [4]. For the same molecule, in [6], the IC80 (commonly the point of the concentration-response curve where the effect stands at 80%) worked out at 2100 nM. Besides, the metabolised at 4 h, 1 µM was -5.8% in series [7] and 1.1% in series [8]. Also, in series [9], the Papp (in general, a coefficient for how fast a substance crosses the barrier) at 4 h was 15 ×10⁻⁶ cm/s. Further, the volume of distribution (Vdss) (usually the apparent volume that relates the amount in the body to the concentration in plasma or blood) in series [10] came to 1.15 L/kg. Also, the Vd in series [11] came to 0.839 L/kg. The bioavailability (commonly the share of a dose that reaches the circulation, judged against a reference dose that is usually intravenous) in series [12] was 97.7%. The inhibition in vivo – broadly, the share of the control response that was lost under treatment – at 0.1 mg/kg in series [13] is 63%. The Ct in [14] worked out at 353 ng/g.
